Results on three compounds are retold here after patent US4942226A, “Halogenated pyrimidine nucleosides and their derivatives” (Merck & Co., Inc., priority 1988, dated 1990).

This data set is described as follows: Determination of Ester Half-lives (conversion of ester to alcohol in phosphate buffer at 37°, HPLC). Format: physicochemical. As to conditions: read-out: t1/2 (time required for 50% conversion of ester to alcohol). As to the method:
Determination of Ester Half-lives
Two mL of phosphate buffer preheated to 37° were added to approximately 0.5 mg of the ester dihydrochloride. The resulting solution was heated at 37° while 20 μL samples were removed at intervals and injected directly into the HPLC injection port.
Unreacted ester and 5-halo-2'-deoxyuridine concentrations were determined by HPLC analysis on a C-18 reverse phase column using a gradient of 98% pH 2.4 phosphoric acid--2% acetonitrile to 70% pH 2.4 phosphoric acid--30% acetonitrile over 10 minutes. The UV detector was set at 280 nm. The half-life (t1/2) is the time required for 50% conversion of ester to alcohol.

Each structure is given as a SMILES string. Counter-ions that a name gives are not always drawn. Like-named read-outs stand apart in the source and are kept apart here.

Regarding `O=C(CNCCNCCC1CCCCC1)OC[C@H]1O[C@@H](n2cc(Br)c(=O)[nH]c2=O)C[C@@H]1O` [Example 3, 5-Bromo-2'-deoxyuridine 5'-N-(2-(2-cyclohexylethylamino)ethyl]glycyl Ester Dihydrochloride], the half-life (pH 6.8, 37°) was found to be 35 min and the half-life (pH 7.4, 37°) came to 22 min.

With `CCNCCNCC(=O)O[C@H]1C[C@H](n2cc(Br)c(=O)[nH]c2=O)O[C@@H]1CO` [Example 1, 5-Bromo-2'-deoxyuridine 3'-N-(2-Ethylaminoethyl)-glycyl Ester Dihydrochloride], the half-life came out at 32 min (pH 6.8, 37°) and 26 min (pH 7.4, 37°).

In the case of `O=C(CNCCNCCC1CCCCC1)O[C@H]1C[C@H](n2cc(Br)c(=O)[nH]c2=O)O[C@@H]1CO` [Example 2, 5-Bromo-2'-deoxyuridine 3'-[N-(2-(2-Cyclohexylethylamino)ethyl)glycyl]esterDihydrochloride], the half-life amounted to 47 min (pH 6.8, 37°) and 29 min (pH 7.4, 37°).
